Experimental data published in publication PMC10891031 (2024).

Assay: plasma from a Sprague Dawley rat
Conditions: 37 °C, up to 15 min

fragment found: [^18F]FNA, 5 min
Substance: H-ACGLSGLGVA-NH2
